# From patent publication EP0900210B1, “ANTIVIRALLY ACTIVE HETEROCYCLIC AZAHEXANE DERIVATIVES” (Novartis AG, priority 1996, dated 1997)
# Target: T1, HIV-1-protease (Human immunodeficiency virus type 1 group M subtype B, UniProt P04585)
# T1 construct: made in house
# Test: Inhibition of HIV-1-protease with icosapeptide substrate […] (HPLC)
# Type: biochemical
# Details: icosapeptide […] 122 µM, 20 mM MES pH 6.0, one hour at 37°C; read-out: IC50
# Experimental: The inhibitory action of the compounds of formula I on the proteolytic activity of HIV-1-protease can be shown, for example, according to known procedures (see A. D. Richards et al., J. Biol. Chem. 265(14), 7733-7736 (1990)). In that method the inhibition of the action of HIV-1-protease (preparation: see S. Billich et al., J. Biol. Chem. 263(34), 17905-17908 (1990)) is measured in the presence of the icosapeptide […] (a synthetic substrate of HIV-1-protease, prepared by peptide synthesis in accordance with known procedures (see J. Schneider et al., Cell 54, 363-368 (1988)), which contains as substrate analogue one of the cleavage sites of the gag-precursor protein (natural substrate of HIV-1-protease). That substrate and its cleavage products are analysed by high performance liquid chromatography (HPLC).
# The test compound is dissolved in dimethyl sulfoxide. The enzymatic test is carried out by adding suitable dilutions of the inhibitor in 20 mM β-morpholinoethanesulfonic acid (MES) buffer pH 6.0 to the test mixture. That mixture consists of the above-mentioned icosapeptide (122 µM) in 20 mM MES-buffer pH 6.0. 100 µl are used per test batch. The reaction is started by the addition of […] of HIV-1-protease solution and is stopped after one hour's incubation at 37°C by the addition of 10 µl of 0.3M HClO4. After centrifugation of the sample at 10 000 x g for 5 minutes, 20 µl of the resulting supernatant are applied to a 125 x 4.6 mm Nucleosil® C18-5m-HPLC column (reversed-phase material supplied by Macherey & Nagel, Düren, FRG, based on silica gel that has been charged with C18alkyl chains). The uncleaved icosapeptide and its cleavage products are eluted from the column by means of the following gradient: 100 % eluant 1 → 50 % eluant 1 + 50 % eluant 2 (eluant 1: 10 % acetonitrile, 90 % H2O, 0.1 % trifluoroacetic acid (TFA); eluant 2: 75 % acetonitrile, 25 % H2O, 0.08 % TFA) for 15 minutes, throughflow rate 1 ml/min. The quantification of the eluted peptide fragments is carried out by measuring the peak height of the cleavage product at 215 nm.
# Using the test system described above with the icosapeptide […], the IC50 values given below are obtained for the following Examples: […]
row,Structure (SMILES),IC50 [nM]
1,"CCOC(=O)N[C@H](C(=O)NN(Cc1ccc(-c2nccs2)cc1)C[C@H](O)[C@H](Cc1ccccc1)NC(=O)[C@@H](NC(=O)OC)C(C)C)C(C)C [Example 19, 1-[4-(Thiazol-2-yl)-phenyl]-4(S)-hydroxy-2-N-(N-ethoxycarbonyl-(L)-valyl)amino-5(S)-N-(N-methoxycarbonyl-(L)-valyl)amino-6-phenyl-2-azahexane]",22
2,"COC(=O)N[C@H](C(=O)N[C@@H](Cc1ccccc1)[C@@H](O)CN(Cc1ccc(-c2nccs2)cc1)NC(=O)[C@@H](NC(=O)OC)C(C)C)C(C)C [Example 20, 1-[4-(Thiazol-2-yl)-phenyl]-4(S)-hydroxy-5(S)-2,5-bis[N-(N-methoxycarbonyl-(L)-valyl)amino]-6-phenyl-2-azahexane]",15
3,"CC[C@H](C)[C@H](NC(=O)OC)C(=O)N[C@@H](Cc1ccccc1)[C@@H](O)CN(Cc1ccc(-c2nccs2)cc1)NC(=O)[C@@H](NC(=O)OC)C(C)(C)C [Example 21, 1-[4-(Thiazol-2-yl)-phenyl]-4(S)-hydroxy-2-N-(N-methoxycarbonyl-(L)-tert-leucyl)amino-5(S)-N-(N-methoxycarbonyl-(L)-iso-leucyl)amino-6-phenyl-2-azahexane]",43
4,"CCOC(=O)N[C@H](C(=O)NN(Cc1ccc(-c2nccs2)cc1)C[C@H](O)[C@H](Cc1ccccc1)NC(=O)[C@@H](NC(=O)OC)[C@@H](C)CC)C(C)C [Example 22, 1-[4-(Thiazol-2-yl)-phenyl]-4(S)-hydroxy-2-N-(N-ethoxycarbonyl-(L)-valyl)amino-5(S)-N-(N-methoxycarbonyl-(L)-iso-leucyl)amino-6-phenyl-2-azahexane]",40
5,"CC[C@H](C)[C@H](NC(=O)OC)C(=O)N[C@@H](Cc1ccccc1)[C@@H](O)CN(Cc1ccc(-c2nccs2)cc1)NC(=O)[C@@H](NC(=O)OC)C(C)C [Example 23, 1-[4-(Thiazol-2-yl)-phenyl]-4(S)-hydroxy-2-N-(N-methoxycarbonyl-(L)-valyl)amino-5(S)-N-(N-methoxycarbonyl-(L)-iso-leucyl)amino-6-phenyl-2-azahexane]",34
6,"CC[C@H](C)[C@H](NC(=O)OC)C(=O)N[C@@H](Cc1ccccc1)[C@@H](O)CN(Cc1ccc(-c2nccs2)cc1)NC(=O)[C@H](CSC)NC(=O)OC [Example 24, 1-[4-(Thiazol-2-yl)-phenyl]-4(S)-hydroxy-2-N-(N-methoxycarbonyl-(L)-S-methylcysteinyl)amino-5(S)-N-(N-methoxycarbonyl-(L)-iso-leucyl)amino-6-phenyl-2-azahexane]",50
7,"COC(=O)N[C@H](C(=O)N[C@@H](Cc1ccccc1)[C@@H](O)CN(Cc1ccc(-c2nnn(C(C)(C)c3ccccc3)n2)cc1)NC(=O)[C@@H](NC(=O)OC)C(C)(C)C)C(C)(C)C [Example 25, 1-{4-[2-(1-Methyl-1-phenyl-ethyl)-2H-tetrazol-5-yl]-phenyl}-4(S)-hydroxy-5(S)-2,5-bis[N-(N-methoxycarbonyl-(L)-tert-leucyl)amino]-6-phenyl-2-azahexane]",100
8,"COC(=O)N[C@H](C(=O)N[C@@H](Cc1ccccc1)[C@@H](O)CN(Cc1ccc(-c2nnn[nH]2)cc1)NC(=O)[C@@H](NC(=O)OC)C(C)(C)C)C(C)(C)C [Example 26, 1-[4-(Tetrazol-5-yl)-phenyl]-4(S)-hydroxy-5(S)-2,5-bis[N-(N-methoxycarbonyl-(L)-tert-leucyl)amino]-6-phenyl-2-azahexane]",21
9,"COC(=O)N[C@H](C(=O)N[C@@H](Cc1ccccc1)[C@@H](O)CN(Cc1ccc(-c2nnn(C)n2)cc1)NC(=O)[C@@H](NC(=O)OC)C(C)(C)C)C(C)(C)C [Example 27, 1-[4-(2-Methyl-2H-tetrazol-5-yl)-phenyl]-4(S)-hydroxy-5(S)-2,5-bis[N-(N-methoxycarbonyl-(L)-tert-leucyl)amino]-6-phenyl-2-azahexane]",27
10,"CC[C@H](C)[C@H](NC(=O)OC)C(=O)NN(Cc1ccc(-c2nnn(C(C)(C)c3ccccc3)n2)cc1)C[C@H](O)[C@H](Cc1ccccc1)NC(=O)[C@@H](NC(=O)OC)C(C)(C)C [Example 28, 1-{4-[2-(1-Methyl-1-phenyl-ethyl)-2H-tetrazol-5-yl]-phenyl}-4(S)-hydroxy-2-N-(N-methoxycarbonyl-(L)-iso-leucyl)amino-5(S)-N-(N-methoxycarbonyl-(L)-tert-leucyl)amino-6-phenyl-2-azahexane]",83
11,"CC[C@H](C)[C@H](NC(=O)OC)C(=O)NN(Cc1ccc(-c2nnn[nH]2)cc1)C[C@H](O)[C@H](Cc1ccccc1)NC(=O)[C@@H](NC(=O)OC)C(C)(C)C [Example 29, 1-[4-(Tetrazol-5-yl)-phenyl]-4(S)-hydroxy-2-N-(N-methoxycarbonyl-(L)-iso-leucyl)amino-5(S)-N-(N-methoxycarbonyl-(L)-tert-leucyl)amino-6-phenyl-2-azahexane]",14
12,"CC[C@H](C)[C@H](NC(=O)OC)C(=O)NN(Cc1ccc(-c2nnn(C)n2)cc1)C[C@H](O)[C@H](Cc1ccccc1)NC(=O)[C@@H](NC(=O)OC)C(C)(C)C [Example 30, 1-[4-(2-Methyl-2H-tetrazol-5-yl)-phenyl]-4(S)-hydroxy-2-N-(N-methoxycarbonyl-(L)-iso-leucyl)amino-5(S)-N-(N-methoxycarbonyl-(L)-tert-leucyl)amino-6-phenyl-2-azahexane]",54
13,"CC[C@H](C)[C@H](NC(=O)OC)C(=O)N[C@@H](Cc1ccccc1)[C@@H](O)CN(Cc1ccc(-c2nnn(C(C)(C)c3ccccc3)n2)cc1)NC(=O)[C@@H](NC(=O)OC)C(C)(C)C [Example 31, 1-{4-[2-(1-Methyl-1-phenyl-ethyl)-2H-tetrazol-5-yl]-phenyl}-4(S)-hydroxy-2-N-(N-methoxycarbonyl-(L)-tert-leucyl)amino-5(S)-N-(N-methoxycarbonyl-(L)-iso-leucyl)amino-6-phenyl-2-azahexane]",171
14,"COC(=O)N[C@H](C(=O)N[C@@H](Cc1ccccc1)[C@@H](O)CN(Cc1ccc(-c2nnn(C(C)(C)C)n2)cc1)NC(=O)[C@@H](NC(=O)OC)C(C)(C)C)C(C)(C)C [Example 34, 1-[4-(2-tert-Butyl-2H-tetrazol-5-yl)-phenyl]-4(S)-hydroxy-5(S)-2,5-bis[N-(N-methoxycarbonyl-(L)-tert-leucyl)amino]-6-phenyl-2-azahexane]",72
15,"COC(=O)N[C@H](C(=O)N[C@@H](Cc1ccccc1)[C@@H](O)CN(Cc1ccc(-c2nnn(C(C)(C)C)n2)cc1)NC(=O)[C@@H](NC(=O)OC)C(C)(C)C)C(C)C [Example 35, 1-[4-(2-tert-Butyl-2H-tetrazol-5-yl)-phenyl]-4(S)-hydroxy-2-N-(N-methoxycarbonyl-(L)-tert-leucyl)amino-5(S)-N-(N-methoxycarbonyl-(L)-valyl)amino-6-phenyl-2-azahexane]",58
16,"COC(=O)N[C@H](C(=O)N[C@@H](Cc1ccccc1)[C@@H](O)CN(Cc1ccc(-c2ccccn2)cc1)NC(=O)[C@@H](NC(=O)OC)C(C)C)C(C)C [Example 37, 1-[4-(Pyridin-2-yl)-phenyl]-4(S)-hydroxy-5(S)-2,5-bis[N-(N-methoxycarbonyl-(L)-valyl)amino]-6-phenyl-2-azahexane]",29
17,"CCOC(=O)N[C@H](C(=O)N[C@@H](Cc1ccccc1)[C@@H](O)CN(Cc1ccc(-c2ccccn2)cc1)NC(=O)[C@@H](NC(=O)OCC)C(C)C)C(C)C [Example 38, 1-[4-(Pyridin-2-yl)-phenyl]-4(S)-hydroxy-5(S)-2,5-bis[N-(N-ethoxycarbonyl-(L)-valyl)amino]-6-phenyl-2-azahexane]",85
18,"COC(=O)N[C@H](C(=O)N[C@@H](Cc1ccccc1)[C@@H](O)CN(Cc1ccc(-c2cccnc2)cc1)NC(=O)[C@@H](NC(=O)OC)C(C)C)C(C)C [Example 39, 1-[4-(Pyridin-3-yl)-phenyl]-4(S)-hydroxy-5(S)-2,5-bis[N-(N-methoxycarbonyl-(L)-valyl)amino]-6-phenyl-2-azahexane]",12
19,"COC(=O)N[C@H](C(=O)N[C@@H](Cc1ccccc1)[C@@H](O)CN(Cc1ccc(-c2cnccn2)cc1)NC(=O)[C@@H](NC(=O)OC)C(C)C)C(C)C [Example 40, 1-[4-(Pyrazin-2-yl)-phenyl]-4(S)-hydroxy-5(S)-2,5-bis[N-(N-methoxycarbonyl-(L)-valyl)amino]-6-phenyl-2-azahexane]",21
20,"CC[C@H](C)[C@H](NC(=O)OC)C(=O)NN(Cc1ccc(-c2cnccn2)cc1)C[C@H](O)[C@H](Cc1ccccc1)NC(=O)[C@@H](NC(=O)OC)C(C)C [Example 41, 1-[4-(Pyrazin-2-yl)-phenyl]-4(S)-hydroxy-2-[N-(N-methoxycarbonyl-(L)-iso-leucyl)amino]-5(S)-[N-(N-methoxycarbonyl-(L)-valyl)amino]-6-phenyl-2-azahexane]",32
